# Assay results as given in patent US12276654B2, “Chemical probe-dependent evaluation of protein activity and uses thereof” (The University of Chicago, priority 2017, dated 2025).
# “Also recorded” adds a separate entry of the source.
# Target: T1, PAFAH2 (Homo sapiens, UniProt Q99487)
# T1 construct: Full-length, human ESD (NM_001984) and PAFAH2 (NM_000437) in pCMV6 entry vectors with C-terminal Myc-DDK tag
# Assay: ADPL quantification of PAFAH2 activity in stable PAFAH2 expressing PC3 cells
# Assay type: cell-based
# Details: same dose-range (0-1 μM)
# Method: Cells were seeded in the 12-well chamber slide, typically at 10,000-30,000 cells per well (Ibidi, #81201). To get an even distribution of the cells, the chamber slide was pre-wetted with cell culture medium, drained off, and the chamber was left at room temperature for 5-10 min after seeding. Cells at 80-90% confluency were pulse treated with either FP-Bio (2 μM) in DMEM and incubated at 37° C. for 40 min or Capthepsin probe (5 μM) in complete medium and incubated at 37° C. for 3 hr. Cells were washed with PBS, fixed with 4% paraformaldehyde in PBS at room temperature for 15 minutes, washed twice with PBS for 5 minutes each at room temperature with orbital shaking and then permeabilized in 0.5% Triton X-100 in PBS at room temperature for 15 minutes. Finally, cells were washed twice with 0.05% Tween-20 in PBS for 5 minutes each at room temperature with orbital shaking.
# Prior to antibody incubation, the chamber was removed and the well boundaries delineated with the hydrophobic barrier pen (Vector laboratories, #H-4000). One-drop Duolink blocking buffer (Sigma, #DUO92004) was added and the slide was incubated at 37° C. for 30 minutes in a humidified chamber. […]
smiles,measurement,value
CC(C)c1ccccc1OC(=O)NCCc1ccc2ccccc2c1 [JW480],effect on PAFAH2 activity (ADPL signal),no inhibition of target signal was observed; also recorded: no effect
